Experimental data as given in US12653809B2, “Urea, amide, and substituted heteroaryl compounds for CBL-B inhibition” (Nurix Therapeutics, Inc., priority 2019, dated 2026).
Where two headings read alike, the source gives them in different places.

Molecular target: T1, Cbl-b (truncated variant, UniProt number Q13191) (Homo sapiens, UniProt Q13191)
T1 construct: made in house
Experiment: Cbl-b activity assay (TR-FRET, interaction of Cbl-b with UbcH5B-Ub)
Assay type: biochemical

[1] = Biological Example 1A, low or high conditions not stated, read-out: IC50 values in the Cbl-b inhibition assay of Biological Example 1A
[2] = high conditions: 100 mM NaCl, 60 nM Src kinase, 12 nM Cbl-b, read-out: Cbl-b activity IC50

T1 sequence (Q13191 36-427): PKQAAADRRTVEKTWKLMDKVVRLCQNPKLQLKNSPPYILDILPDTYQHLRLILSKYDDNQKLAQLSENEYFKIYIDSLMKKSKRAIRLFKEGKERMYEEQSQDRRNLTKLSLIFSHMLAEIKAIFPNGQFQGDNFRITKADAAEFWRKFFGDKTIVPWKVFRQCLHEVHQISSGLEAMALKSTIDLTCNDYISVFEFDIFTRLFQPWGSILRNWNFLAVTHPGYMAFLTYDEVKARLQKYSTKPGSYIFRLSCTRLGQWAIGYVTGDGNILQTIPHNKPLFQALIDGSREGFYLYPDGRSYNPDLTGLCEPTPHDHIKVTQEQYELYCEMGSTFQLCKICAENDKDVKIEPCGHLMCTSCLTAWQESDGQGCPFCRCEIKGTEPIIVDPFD

Row | IC50 [1] | IC50 [2] | IC50 (low conditions: 50 mM NaCl, 30 nM Src kinase, 12 nM Cbl-b, read-out: Cbl-b activity IC50) | SMILES
1 | 0.1 to 1 µM | 0.1 to 1 µM |  | C[C@H](Cc1nncn1C)c1cccc(NC(=O)N2CCc3cccnc32)c1 [Example 16, (R)—N-(3-(1-(4-methyl-4H-1,2,4-triazol-3-yl)propan-2-yl)phenyl)-2,3-dihydro-1H-pyrrolo[2,3-b]pyridine-1-carboxamide]
2 | 1 to 5 µM | 1 to 5 µM |  | C[C@H](Sc1nncn1C)c1cccc(-c2cc(-c3ccccc3)no2)c1 [Example 67, (S)-5-(3-(1-((4-methyl-4H-1,2,4-triazol-3-yl)thio)ethyl)phenyl)-3-phenylisoxazole]
3 |  | ≥ 5 µM |  | C[C@H](Sc1nncn1C)c1cccc(NC(=O)NC2CCCN(c3cccnn3)C2)c1 (stereo partly drawn) [Example 129, 1-(3-((S)-1-((4-methyl-4H-1,2,4-triazol-3-yl)thio)ethyl)phenyl)-3-(1-(pyridazin-3-yl)piperidin-3-yl)urea]
4 |  | 1 to 5 µM |  | Cc1ccc(-c2cc(-c3cccc([C@H](C)Sc4nncn4C)c3)on2)cc1 [Example 55, (S)-5-(3-(1-(4-methyl-4H-1,2,4-triazol-3-ylthio)ethyl)phenyl)-3-p-tolylisoxazole]
5 |  | ≥ 5 µM |  | C[C@H](Sc1nncn1C)c1cccc(NC(=O)N2CCOC3(CCC3)C2)c1 [Example 43, (S)—N-(3-(1-((4-methyl-4H-1,2,4-triazol-3-yl)thio)ethyl)phenyl)-5-oxa-8-azaspiro[3.5]nonane-8-carboxamide]
6 |  | ≥ 5 µM |  | C[C@H](Sc1nncn1C)c1cccc(NC(=O)N2CCO[C@@H]([C@H]3CCCO3)C2)c1 [Example 136, (R)—N-(3-((S)-1-((4-methyl-4H-1,2,4-triazol-3-yl)thio)ethyl)phenyl)-2-((R)-tetrahydrofuran-2-yl)morpholine-4-carboxamide]
7 |  | 1 to 5 µM |  | C[C@H](Cc1nncn1C)c1cccc(-c2n[nH]c3cccnc23)c1 [Example 118, (R)-3-(3-(1-(4-methyl-4H-1,2,4-triazol-3-yl)propan-2-yl)phenyl)-1H-pyrazolo[4,3-b]pyridine]
8 |  | ≥ 5 µM |  | CC(=O)N1CCC2(CCN(C(=O)Nc3cccc([C@H](C)Sc4nncn4C)c3)CC2)C1 [Example 160, (S)-2-acetyl-N-(3-(1-((4-methyl-4H-1,2,4-triazol-3-yl)thio)ethyl)phenyl)-2,8-diazaspiro[4.5]decane-8-carboxamide]
9 |  | ≥ 5 µM |  | C[C@H](Sc1nncn1C)c1cccc(NC(=O)N2CC(OC(F)(F)F)C2)c1 [Example 52, (S)—N-(3-(1-((4-methyl-4H-1,2,4-triazol-3-yl)thio)ethyl)phenyl)-3-(trifluoromethoxy)azetidine-1-carboxamide]
10 |  | ≥ 5 µM |  | C[C@H](Sc1nncn1C)c1cccc(NC(=O)N2CCN(C3CC3)C(=O)C2)c1 [Example 156, (S)-4-cyclopropyl-N-(3-(1-((4-methyl-4H-1,2,4-triazol-3-yl)thio)ethyl)phenyl)-3-oxopiperazine-1-carboxamide]
11 | 1 to 5 µM | 1 to 5 µM |  | C[C@H](Cc1nncn1C)c1cccc(NC(=O)N2CCC(C(=O)O)(C(F)(F)F)C2)c1 (stereo partly drawn) [Example 15, 1-((3-((R)-1-(4-methyl-4H-1,2,4-triazol-3-yl)propan-2-yl)phenyl)carbamoyl)-3-(trifluoromethyl)pyrrolidine-3-carboxylic acid]
12 |  | 0.1 to 1 µM |  | C[C@H](Sc1nncn1C)c1cccc(-c2n[nH]c3ccccc23)c1 [Example 107, (S)-3-(3-(1-((4-methyl-4H-1,2,4-triazol-3-yl)thio)ethyl)phenyl)-1H-indazole]
13 |  | ≥ 5 µM |  | C[C@H](Sc1nncn1C)c1cccc(NC(=O)N2CCCC2)c1 [Example 151, N-[3-[(1S)-1-[(4-methyl-4H-1,2,4-triazol-3-yl)sulfanyl]ethyl]phenyl]pyrrolidine-1-carboxamide]
14 |  | ≥ 5 µM |  | C[C@H](Sc1nncn1C)c1cccc(NC(=O)N2CCC2)c1 [Example 164, (S)—N-(3-(1-(4-methyl-4H-1,2,4-triazol-3-ylthio)ethyl)phenyl)azetidine-1-carboxamide]
15 |  | 1 to 5 µM |  | COc1ccc(-c2cn(-c3cccc([C@H](C)Sc4nncn4C)c3)nn2)cc1 [Example 75, (S)-4-(4-methoxyphenyl)-1-(3-(1-((4-methyl-4H-1,2,4-triazol-3-yl)thio)ethyl)phenyl)-1H-1,2,3-triazole]
16 | ≥ 5 µM | ≥ 5 µM |  | CC(Sc1nncn1C)c1ccnc(-n2ncc(-c3ccccc3)n2)c1 (centres unmarked) [Example 101, 4-(1-((4-methyl-4H-1,2,4-triazol-3-yl)thio)ethyl)-2-(4-phenyl-2H-1,2,3-triazol-2-yl)pyridine]
17 |  | ≥ 5 µM |  | C[C@H](Sc1nncn1C)c1cccc(NC(=O)N2CCC(c3ccccn3)C2)c1 (stereo partly drawn) [Example 157, N-(3-((S)-1-((4-methyl-4H-1,2,4-triazol-3-yl)thio)ethyl)phenyl)-3-(pyridin-2-yl)pyrrolidine-1-carboxamide]
18 |  | ≥ 5 µM |  | C[C@H](Sc1nncn1C)c1cccc(NC(=O)N2CCOC(c3ncon3)C2)c1 (stereo partly drawn) [Example 154, N-(3-((S)-1-((4-methyl-4H-1,2,4-triazol-3-yl)thio)ethyl)phenyl)-2-(1,2,4-oxadiazol-3-yl)morpholine-4-carboxamide]

Row | IC50 [1] | IC50 [2] | IC50 (low conditions: 50 mM NaCl, 30 nM Src kinase, 12 nM Cbl-b, read-out: Cbl-b activity IC50) | SMILES
19 | 1 to 5 µM | 1 to 5 µM |  | C[C@@H](Sc1nncn1C)c1cccc(-c2n[nH]c3ccccc23)c1 [Example 108, (R)-3-(3-(1-((4-methyl-4H-1,2,4-triazol-3-yl)thio)ethyl)phenyl)-1H-indazole]
20 | 0.1 to 1 µM | 0.1 to 1 µM |  | Cc1cccc2c1CN(C(=O)Nc1cccc([C@H](C)Cc3nncn3C)c1)C2 [Example 13, (R)-4-methyl-N-(3-(1-(4-methyl-4H-1,2,4-triazol-3-yl)propan-2-yl)phenyl)isoindoline-2-carboxamide]
21 |  | ≥ 5 µM |  | C[C@H](Sc1nncn1C)c1cccc(NC(=O)Nc2ccccc2)c1 [Example 6, (S)-1-(3-(1-((4-methyl-4H-1,2,4-triazol-3-yl)thio)ethyl)phenyl)-3-phenylurea]
22 | 1 to 5 µM | 1 to 5 µM |  | C[C@H](Sc1nncn1C)c1cccc(-n2ncc(-c3ccc(Cl)cc3)n2)c1 [Example 72, (S)-4-(4-chlorophenyl)-2-(3-(1-((4-methyl-4H-1,2,4-triazol-3-yl)thio)ethyl)phenyl)-2H-1,2,3-triazole]
23 | 1 to 5 µM | 1 to 5 µM |  | C[C@H](Sc1nncn1C)c1cccc(NC(=O)N2Cc3cnn(C)c3C2)c1 [Example 46, (S)-1-methyl-N-(3-(1-((4-methyl-4H-1,2,4-triazol-3-yl)thio)ethyl)phenyl)-4,6-dihydropyrrolo[3,4-c]pyrazole-5(1H)-carboxamide]
24 |  | ≥ 5 µM |  | Cn1cnnc1[C@H]1C[C@H]1c1cccc(NC(=O)N2CCOc3cccnc32)c1 [Example 166, N-(3-((1R,2S)-2-(4-methyl-4H-1,2,4-triazol-3-yl)cyclopropyl)phenyl)-2,3-dihydro-4H-pyrido[3,2-b][1,4]oxazine-4-carboxamide]
25 |  | ≥ 5 µM |  | C[C@H](Sc1nncn1C)c1cccc(NC(=O)NC2CCCN(C)C2)c1 (stereo partly drawn) [Example 159, 1-(3-((S)-1-((4-methyl-4H-1,2,4-triazol-3-yl)thio)ethyl)phenyl)-3-(1-methylpiperidin-3-yl)urea]
26 |  | 0.1 to 1 µM |  | Cn1cnnc1CC1(c2cccc(NC(=O)N3CCOc4cccnc43)c2)COC1 [Example 23, N-(3-(3-((4-methyl-4H-1,2,4-triazol-3-yl)methyl)oxetan-3-yl)phenyl)-2,3-dihydro-4H-pyrido[3,2-b][1,4]oxazine-4-carboxamide]
27 | ≥ 5 µM | ≥ 5 µM |  | C[C@@H](Sc1nncn1C)c1cccc(-n2ncc(-c3ccccc3)n2)c1 [Example 100, (R)-2-(3-(1-((4-methyl-4H-1,2,4-triazol-3-yl)thio)ethyl)phenyl)-4-phenyl-2H-1,2,3-triazole]
28 | 1 to 5 µM | 1 to 5 µM |  | C[C@H](Sc1nncn1C)c1cccc(-n2cc(-c3ccc(Cl)cc3)nn2)c1 [Example 73, (S)-4-(4-chlorophenyl)-1-(3-(1-((4-methyl-4H-1,2,4-triazol-3-yl)thio)ethyl)phenyl)-1H-1,2,3-triazole]
29 |  | ≥ 5 µM |  | C[C@H](Sc1nncn1C)c1cccc(NC(=O)Nc2ccc(N3CCOCC3=O)cc2)c1 [Example 147, (S)-1-(3-(1-(4-methyl-4H-1,2,4-triazol-3-ylthio)ethyl)phenyl)-3-(4-(3-oxomorpholino)phenyl)urea]
30 | ≥ 5 µM | ≥ 5 µM |  | C[C@H](Sc1nncn1C)c1cccc(-c2cc(-c3ccc(S(C)(=O)=O)cc3)no2)c1 [Example 66, ((S)-5-(3-(1-(4-methyl-4H-1,2,4-triazol-3-yl)thio)ethyl)phenyl)-3-(4-(methylsulfonyl)phenyl)isoxazole]
31 |  | ≥ 5 µM |  | C[C@H](Sc1nncn1C)c1cccc(NC(=O)N2CCN(c3cccnc3)CC2)c1 [Example 149, (S)—N-(3-(1-((4-methyl-4H-1,2,4-triazol-3-yl)thio)ethyl)phenyl)-4-(pyridin-3-yl)piperazine-1-carboxamide]
32 |  | 1 to 5 µM |  | C[C@H](Sc1nncn1C)c1cccc(-c2cc(-c3cccc(Cl)c3)no2)c1 [Example 58, 3-[[(1S)-1-[3-[3-(3-chlorophenyl)-1,2-oxazol-5-yl]phenyl]ethyl]sulfanyl]-4-methyl-4H-1,2,4-triazole]
33 |  |  | ≥ 5 µM | CC(Sc1nncn1C)c1cccc(C(=O)Nc2ccccc2)c1 (centres unmarked) [Example 33, 3-(1-((4-methyl-4H-1,2,4-triazol-3-yl)thio)ethyl)-N-phenylbenzamide]
34 |  | 0.1 to 1 µM |  | C[C@H](Cc1nncn1C)c1cccc(-c2n[nH]c3c(N4CC[C@@H](O)C4)cc(C(F)(F)F)nc23)c1 [Example 112, (R)-1-(3-(3-((R)-1-(4-methyl-4H-1,2,4-triazol-3-yl)propan-2-yl)phenyl)-5-(trifluoromethyl)-1H-pyrazolo[4,3-b]pyridin-7-yl)pyrrolidin-3-ol]
35 | < 0.1 µM | < 0.1 µM |  | C[C@H](Cc1nncn1C)c1cccc(NC(=O)N2CC(C)(C)Oc3cccnc32)c1 [Example 19, (R)-2,2-dimethyl-N-(3-(1-(4-methyl-4H-1,2,4-triazol-3-yl)propan-2-yl)phenyl)-2,3-dihydro-4H-pyrido[3,2-b][1,4]oxazine-4-carboxamide]
